# Measurements published in patent US10471029B2, “Methods for treating neurological disorders” (Alzheon, Inc., priority 2014, dated 2019).
# Where two headings read alike, the source gives them in different places.
# Experiments:
# [1] = system: Alzheimer's Disease patients; settings: n=599, cited from earlier work
# [2] = system: Alzheimer's Disease patients; test: ADAS-Cog score following treatment of Alzheimer's Disease patients with tramiprosate, retrospective subgroup analysis in 599 ApoE4+ subjects (FIGS. 1-2); assay type: in vivo, human; settings: through 18 months, 150 mg BID, n=183, on top of acetylcholinesterase inhibitors and/or memantine
# Description: FIG. 1 illustrates reduced ADAS-Cog score following treatment of Alzheimer's Disease patients with tramiprosate. At 26 weeks−1.25 (82%) P=0.0219 for 100 mg BID, −1.03 (57%), P=0.118 for 150 mg BID. At 52 weeks−2.03 (35%) P=0.002 for 100 mg BID, −1.85 (32%), P=0.006 for 150 mg BID. At 65 weeks−1.52 (22%) P=0.024 for 100 mg BID, −1.90 (27%) P=0.005 for 150 mg BID. At 78 weeks−1.90 (27%) P=0.005 for 100 mg BID, −1.86 (21%) P=0.028 for 150 mg BID. (n=599). Data derived from Caltagirone et al., “The potential protective effect of tramiprosate (homotaurine) against Alzheimer's disease: a review,” Aging Clin Exp Res. 2012 December; 24(6):580-7.
# In certain embodiments, the efficacy of a compound may be determined through the ADAS-cog (Alzheimer's Disease Assessment Scale-cognitive subscale). ADAS was designed to measure the severity of the most important symptoms of Alzheimer's disease (AD). Its subscale ADAS-cog is the most popular cognitive testing instrument used in clinical trials of nootropics. It consists of 11 tasks measuring the disturbances of memory, language, praxis, attention and other cognitive abilities which are often referred to as the core symptoms of AD. The ADAS-Cog helps evaluate cognition and differentiates between normal cognitive functioning and impaired cognitive functioning. […]
# [3] = system: Alzheimer's Disease patients; test: ADAS-Cog by ApoE4 subgroup in merged dataset; assay type: in vivo, human; settings: for Change in ADAS-Cog Slope vs placebo / Change in ADAS-Cog Week 78 / ADAS-Cog Slope vs placebo / ADAS-Cog Week 78: merged dataset; for Change in ADAS-Cog Slope vs placebo / Change in ADAS-Cog Week 78: <80 years old
# From the text: (§1) In certain embodiments, the efficacy of a compound may be determined through the ADAS-cog (Alzheimer's Disease Assessment Scale-cognitive subscale). ADAS was designed to measure the severity of the most important symptoms of Alzheimer's disease (AD). Its subscale ADAS-cog is the most popular cognitive testing instrument used in clinical trials of nootropics. It consists of 11 tasks measuring the disturbances of memory, language, praxis, attention and other cognitive abilities which are often referred to as the core symptoms of AD. The ADAS-Cog helps evaluate cognition and differentiates between normal cognitive functioning and impaired cognitive functioning. It is especially useful for determining the extent of cognitive decline and can help evaluate which stage of Alzheimer's disease a person is in, based on their answers and score. The ADAS-Cog can be used in clinical trials in order to determine incremental improvements or declines in cognitive functioning.
# (§2) Patients were administered 3APS at 150 mg BID and 100 mg BID or were provided a placebo. ADAS-Cog results were measured. The data establish that the decline in score is delayed by 3APS. At 13 weeks a small improvement in ADAS-cog was observed. Over time, the difference increased.
# [4] = system: Alzheimer's Disease patients; test: CDR-SB (function) in ApoE4+ subjects (FIG. 3); assay type: in vivo, human; settings: through 18 months, 150 mg BID, n=183, on top of acetylcholinesterase inhibitors and/or memantine
# [5] = system: Alzheimer's Disease patients; test: Change in ADAS-Cog by ApoE status in North American Trial; assay type: in vivo, human; settings: for Change in ADAS-Cog Slope vs placebo / Change in ADAS-Cog Week 78: North American Trial
# From the text: as §1, §2
# Patients were administered 3APS and ADAS-Cog results were obtained at various timepoints. Patients were then genotyped to detect the presence of ApoE4 alleles. FIG. 8 illustrates the advantageous effects of tramiprosate, the active agent of Val-APS, in certain sub-populations segregated based on Apo E4 status. […] Data is presented at 13 weeks, 26 weeks, 39 weeks, 52 weeks, 65 weeks, and 78 weeks. […] ApoE4 prevalence correlates with improved cognition scores.
# [6] = Plasma and brain exposure of tramiprosate after oral Val-APS or tramiprosate in animals (FIG. 4); assay type: in vivo; settings: Val-APS prodrug versus tramiprosate
# From the text: L-Valyl-3-aminopropanesulfonate (Val-APS) is an orally available small molecule prodrug of tramiprosate with improved pharmaceutical properties. Tramiprosate was advanced to a ˜2,000 patient Phase 3 program which completed in 2007. […] Thus the present disclosure provides for administration of certain compounds including val-APS to ApoE4-positive patients for the treatment of Alzheimer's Disease.
# The AUC ratio of brain tramiprosate exposure due to Val-APS compared to tramiprosate is ˜2.1.
# [7] = Tolerability of Val-APS prodrug over tramiprosate; assay type: in vivo
# [8] = human, in vivo
smiles,measurement,setting,value
"NCCCS(=O)(=O)O [Compound 3APS, 3-amino-1-propanesulfonic acid]","ADAS-Cog score, percent in brackets","[1]; 26 weeks, 100 mg BID",82%
same,ADAS-Cog score,"[1]; 26 weeks, 150 mg BID",−1.03
same,"ADAS-Cog score, percent in brackets","[1]; 26 weeks, 150 mg BID",57%
same,"ADAS-Cog score, percent in brackets","[1]; 52 weeks, 100 mg BID",35%
same,ADAS-Cog score,"[1]; 52 weeks, 150 mg BID",−1.85
same,"ADAS-Cog score, percent in brackets","[1]; 52 weeks, 150 mg BID",32%
same,"ADAS-Cog score, percent in brackets","[1]; 65 weeks, 100 mg BID",22%
same,ADAS-Cog score,"[1]; 65 weeks, 150 mg BID",−1.90
same,"ADAS-Cog score, percent in brackets","[1]; 65 weeks, 150 mg BID",27%
same,ADAS-Cog score,"[1]; 78 weeks, 100 mg BID",−1.90
same,"ADAS-Cog score, percent in brackets","[1]; 78 weeks, 100 mg BID",27%
same,ADAS-Cog score,"[1]; 78 weeks, 150 mg BID",−1.86
same,"ADAS-Cog score, percent in brackets","[1]; 78 weeks, 150 mg BID",21%
same,cognition (ADAS-cog),[2],clinically meaningful improvement
same,decline in ADAS-Cog score,[3]; 150 mg BID and 100 mg BID versus placebo,delayed
same,Change in ADAS-Cog Slope vs placebo,"[3]; ApoE4+, 100 mg BID",−3.92
same,Change in ADAS-Cog Week 78,"[3]; ApoE4+, 100 mg BID",−1.13
same,Change in ADAS-Cog Slope vs placebo,"[3]; ApoE4+, 150 mg BID",−8.65
same,Change in ADAS-Cog Week 78,"[3]; ApoE4+, 150 mg BID",−2.17
same,Change in ADAS-Cog Slope vs placebo,"[3]; ApoE4−, 100 mg BID",−4.40
same,Change in ADAS-Cog Week 78,"[3]; ApoE4−, 100 mg BID",−2.54
same,Change in ADAS-Cog Slope vs placebo,"[3]; ApoE4−, 150 mg BID",−2.81
same,Change in ADAS-Cog Week 78,"[3]; ApoE4−, 150 mg BID",−0.93
same,Change in ADAS-Cog Slope vs placebo,"[3]; Total, 100 mg BID",−3.94
same,Change in ADAS-Cog Week 78,"[3]; Total, 100 mg BID",−1.55
same,Change in ADAS-Cog Slope vs placebo,"[3]; Total, 150 mg BID",−6.37
same,Change in ADAS-Cog Week 78,"[3]; Total, 150 mg BID",−1.66
same,ADAS-Cog Slope vs placebo,"[3]; ApoE4+, 100 mg BID",−3.61
same,ADAS-Cog Week 78,"[3]; ApoE4+, 100 mg BID",−1.09
same,ADAS-Cog Slope vs placebo,"[3]; ApoE4+, 150 mg BID",−7.09
same,ADAS-Cog Week 78,"[3]; ApoE4+, 150 mg BID",−1.73
same,ADAS-Cog Slope vs placebo,"[3]; ApoE4−, 100 mg BID",−2.45
same,ADAS-Cog Week 78,"[3]; ApoE4−, 100 mg BID",−1.92
same,ADAS-Cog Slope vs placebo,"[3]; ApoE4−, 150 mg BID",0.35
same,ADAS-Cog Week 78,"[3]; ApoE4−, 150 mg BID",−0.66
same,ADAS-Cog Slope vs placebo,"[3]; Total, 100 mg BID",−3.18
same,ADAS-Cog Week 78,"[3]; Total, 100 mg BID",−1.34
same,ADAS-Cog Slope vs placebo,"[3]; Total, 150 mg BID",−4.19
same,ADAS-Cog Week 78,"[3]; Total, 150 mg BID",−1.27
same,function (CDR-SB),[4],clinically meaningful improvement
same,Change in ADAS-Cog Slope vs placebo,"[5]; ApoE4+ and ++, 100 mg BID",−1.43
same,Change in ADAS-Cog Week 78,"[5]; ApoE4+ and ++, 100 mg BID",−0.81
same,Change in ADAS-Cog Slope vs placebo,"[5]; ApoE4+ and ++, 150 mg BID",−7.49
same,Change in ADAS-Cog Week 78,"[5]; ApoE4+ and ++, 150 mg BID",−1.67
same,Change in ADAS-Cog Slope vs placebo,"[5]; ApoE4++, 100 mg BID",−4.33
same,Change in ADAS-Cog Week 78,"[5]; ApoE4++, 100 mg BID",−1.49
same,Change in ADAS-Cog Slope vs placebo,"[5]; ApoE4++, 150 mg BID",−19.79
same,Change in ADAS-Cog Week 78,"[5]; ApoE4++, 150 mg BID",−4.63
same,Change in ADAS-Cog Slope vs placebo,"[5]; ApoE4−, 100 mg BID",−2.04
same,Change in ADAS-Cog Week 78,"[5]; ApoE4−, 100 mg BID",−1.23
same,Change in ADAS-Cog Slope vs placebo,"[5]; ApoE4−, 150 mg BID",3.57
same,Change in ADAS-Cog Week 78,"[5]; ApoE4−, 150 mg BID",0.59
same,Change in ADAS-Cog Slope vs placebo,"[5]; Total, 100 mg BID",−1.75
same,Change in ADAS-Cog Week 78,"[5]; Total, 100 mg BID",−0.93
same,Change in ADAS-Cog Slope vs placebo,"[5]; Total, 150 mg BID",−3.32
same,Change in ADAS-Cog Week 78,"[5]; Total, 150 mg BID",−0.83
same,improvement versus placebo on cognition,"[5]; homozygous ApoE4 subjects, 150 mg BID, n=34",4 point
same,improvement versus placebo on the ADAS-cog,"[5]; homozygous ApoE4 subjects, 150 mg BID, n=34, after 18 months of treatment",4.62 points
"CC(C)[C@H](N)C(=O)NCCCS(=O)(=O)O [Val-APS, L-Valyl-3-aminopropanesulfonate]",accumulation in the brain,[6],improved
same,GI tolerability,[7],improved
same,nausea & vomiting,[7],reduced
same,formation of metabolite NRM5074,[8],reduced
same,inter-subject PK variability,[8],decreased
same,t½,[8],14.9 ±3.9
